Legend:
[1] = test system: Lactobacillus plantarum strain ATCC 8014; test: Contamination control in Z. mobilis seed medium (lactic acid formation); type: cell-based; conditions: fermentation broth with media lacking cellulosic biomass hydrolysate
Protocol: (§1) Fermentation samples were taken at timed intervals and analyzed for EtOH, residual sugars, and other metabolic products such as acetic acid, lactic acid, and glycerol using either a Waters HPLC system (Alliance system, Waters Corp., Milford, Mass.) or an Agilent 1100 Series LC; conditions=0.6 mL/min of 0.01 N H2SO4, injection volume=5 μL, autosampler temperature=10° C., column temperature=55° C., run time=25 min, detection by refractive index (maintained at 40° C.). The HPLC column was purchased from BioRad (Aminex HPX-87H, BioRad Inc., Hercules, Calif.). Analytes were quantified by refractive index detection and compared to known standards.
Z. mobilis strain ZW705 (described in General Methods) inoculum was prepared by reviving 2 mL of OD-10 frozen stock in MRM3G6 medium (10 g/L BBL yeast extract, 2 g/L KH2PO4, 1 g/L MgSO4*7H2O, 60 g/L glucose, pH 5.5) at 33° C. for ˜8 hr, at which point the OD was ˜2. Lactobacillus plantarum strain ATCC 8014 inoculum was prepared by inoculating MRS medium with an individual colony and allowing growth at 33° C. for 8 hr, at which point the OD was ˜0.4.
Seed medium (10 g/L Amberex695 yeast extract, 2 g/L KH2PO4, 5 g/L MgSO4*7H2O, 10 mM sorbitol, 150 g/L glucose, pH 5.5) was prepared and sterilized by autoclaving (121° C., 30 min). […]

L. plantarum = test: Contaminated Z. mobilis hydrolysate fermentation with Lactrol in the medium (lactic acid); type: cell-based, Lactobacillus plantarum; conditions: fermentation broth with media containing cellulosic biomass hydrolysate
Protocol: as §1
To determine the Lactrol® dose required to prevent lactic acid formation during hydrolysate fermentation, a portion of intentionally-contaminated seed culture F1067 at EFT=19.3 hr (from Example 1) was used as a seed culture to inoculate cob hydrolysate medium (FRF13; see General Methods) (adjusted to pH 5.8, +10 mM sorbitol) at 10 vol % (final volume) containing either 0 ppm (sample F1069) or 2 ppm (sample F1071) of Lactrol®, which was then fermented at 33° C. (reduced to 30° C. at EFT=21 hr) and pH 5.8 (adjusted with 4 N NaOH). […]

Z. mobilis strain ZW705 = test: Tolerance of Z. mobilis to virginiamycin: growth in clarified MD07#3 hydrolysate; type: cell-based, Zymomonas mobilis; conditions: 2.5 ppm and 5 ppm virginiamycin; clarified cellulosic biomass hydrolysate medium, conditions of Example 1
Protocol: Z. mobilis strain ZW705 (described in General Methods) inoculum was prepared by reviving 2 mL of OD-10 frozen stock in MRM3G6 medium (10 g/L BBL yeast extract, 2 g/L KH2PO4, 1 g/L MgSO4*7H2O, 60 g/L glucose, pH 5.5) at 33° C. for ˜8 hr. This culture was used to inoculate tubes containing clarified MD07#3 hydrolysate (see General Methods) supplemented with 2 g/L yeast extract and various virginiamycin preparations at a 20% (final volume) inoculation rate, producing an initial OD of ˜0.5. Stocks of the virginiamycin-containing agents Lactrol®, Lactoside V™ or Lactoside 247™ were prepared at 1000 ppm in ethanol. These agents were added to the media at 2.5 ppm, 5 ppm, 10 ppm, or 20 ppm. […] The tubes were maintained at 33° C. with shaking for 32 hours, with growth monitored by measuring OD600.

[2] = test system: Zymomonas mobilis strain ZM4; conditions: concentrations that are safe to use with yeast; Agrawan and Basappa 1996; cited from earlier work

| Molecule | concentration of virginiamycin that controls contaminating bacteria without affecting glucose utilization and ethanol production of Zymomonas cells [1] | concentration of virginiamycin that controls contaminating bacteria while maintaining typical ethanol production (L. plantarum) | growth of Zymomonas cells (OD600) compared with absence of virginiamycin (Z. mobilis strain ZW705) | effect on growth of / safety for Zymomonas [2] |
| --- | --- | --- | --- | --- |
| virginiamycin | about 2 ppm | at least 10 ppm | improved growth |  |
| CC1(C)S[C@@H]2[C@H](NC(=O)Cc3ccccc3)C(=O)N2[C@H]1C(=O)O [penicillin G] |  |  |  | safe for use with Zymomonas |
| [H]/N=C(/N)N[C@H]1[C@H](O)[C@@H](O)[C@H](O[C@@H]2O[C@@H](C)[C@](O)(C=O)[C@H]2O[C@@H]2O[C@@H](CO)[C@H](O)[C@@H](O)[C@@H]2NC)[C@@H](N/C(N)=N\[H])[C@@H]1O [streptomycin] |  |  |  | inhibitory to growth |
| polymixin |  |  |  | inhibitory to growth |
